Test results reported in patent US20230000870A1, “METHODS OF TREATING CANCER IN BIOMARKER-IDENTIFIED PATIENTS WITH INHIBITORS OF CYCLIN-DEPENDENT KINASE 7 (CDK7)” (Syros Pharmaceuticals, Inc., priority 2019, published 2023).

Experiments:
CDK2/Cyclin E1 complex = CDK2/Cyclin E1 complex (Homo sapiens, UniProt P24941); test: CDK2 kinase inhibition assay (Caliper/LabChip EZ Reader); type: biochemical; settings: CDK2/Cyclin E1 0.5 nM, ATP 2 mM, 35 min at 27° C.
Procedure: (§1) Compounds of the invention were assayed for inhibition of CDK7, CDK9, CDK12, and CDK2 activity at Biortus Biosciences (Jiangyin, Jiangsu Province, P.R. of China) using kinase assays for each CDK developed with a Caliper/LabChip EZ Reader (Perkin Elmer, Waltham, Mass.).
(§2) Furthermore, the CDK9 inhibition assay used CDK9/Cyclin T1 complex (8 nM) and “5-FAM-CDK9tide” peptide substrate (2 μM, synthesized fluorophore-labeled peptide with the following sequence: 5-FAM-GSRTPMY-NH2 where 5-FAM is defined above and NH2 signifies a C-terminal amide) with 10 mM MgCl2 in the buffer composition listed above. The CDK12 inhibition assay used CDK12 (aa686-1082)/Cyclin K complex (50 nM) and “5-FAM-CDK9tide” (2 μM) as defined above, with 2 mM MgCl2 in the buffer composition above. Additionally, the CDK2 inhibition assay used CDK2/Cyclin E1 complex (0.5 nM) and “5-FAM-CDK7tide” (2 μM) as defined above, with 2 mM MgCl2 in the buffer composition listed above.
(§3) The incubation period at 27° C. for each CDK inhibition assay was chosen such that the fraction of phosphorylated peptide product produced in each assay, relative to the total peptide concentration, was approximately 20% (±5%) for the uninhibited kinase (35 min. for CDK7, 35 min. for CDK2, 3 hr. for CDK12, 15 min. for CDK9).

[1] = molecular target: CDK7/Cyclin H/MAT1 complex (Homo sapiens, UniProt P50613); test: CDK7 kinase inhibition assay (Caliper/LabChip EZ Reader); type: biochemical; settings: CDK7/Cyclin H/MAT1 6 nM, ATP 2 mM, 35 min at 27° C.
Procedure: as §1, §2, §3

CDK9/Cyclin T1 complex = CDK9/Cyclin T1 complex (Homo sapiens, UniProt P50750); test: CDK9 kinase inhibition assay (Caliper/LabChip EZ Reader); type: biochemical; settings: CDK9/Cyclin T1 8 nM, ATP 2 mM, 15 min at 27° C.
Procedure: as §1, §2, §3

[2] = molecular target: T1, CDK12 (aa686-1082)/Cyclin K complex (Homo sapiens, UniProt Q9NYV4); test: CDK12 kinase inhibition assay (Caliper/LabChip EZ Reader); type: biochemical; settings: CDK12 (aa686-1082)/Cyclin K 50 nM, ATP 2 mM, 3 hr at 27° C.
T1 construct: CDK12 (aa686-1082)/Cyclin K complex
Procedure: as §1, §2, §3

A673 cells = test: Inhibition of proliferation of A673 cells (CyQUANT, 72 hour); type: cell-based, human; settings: read-out: Inhibition of Proliferation of A673 Cells (calculated IC50)
Procedure: A673 Cells: A673 cells are a cell line derived from human muscle Ewing's sarcoma. Representative compounds of the invention were tested at different concentrations (from 4 μM to […]; 0.5 log serial dilutions) for their ability to inhibit the proliferation of A673 cells. Known CDK inhibitors dinaciclib or N-((1S,3R)-3-((5-chloro-4-(1H-indol-3-yl)pyrimidin-2-yl)amino)cyclohexyl)-5-((E)-4-(dimethylamino)but-2-enamido)picolinamide and triptolide were used as positive controls. Cells were grown in Dulbecco's Modified Eagle's Medium, +10% FBS+1 mM Sodium Pyruvate. The cells were cultured at 37° C. in a humidified chamber in the presence of 5% CO2. Proliferation assays were conducted over a 72 hour time period. CyQUANT® (Life Technologies, Chicago, Ill. USA) was used to assess the anti-proliferative effects of the compounds following manufacturer's directions and utilizing the reagents supplied with the CyQUANT® kit.

CDK9/Cyclin T1 complex, sequence (P50750 whole entry): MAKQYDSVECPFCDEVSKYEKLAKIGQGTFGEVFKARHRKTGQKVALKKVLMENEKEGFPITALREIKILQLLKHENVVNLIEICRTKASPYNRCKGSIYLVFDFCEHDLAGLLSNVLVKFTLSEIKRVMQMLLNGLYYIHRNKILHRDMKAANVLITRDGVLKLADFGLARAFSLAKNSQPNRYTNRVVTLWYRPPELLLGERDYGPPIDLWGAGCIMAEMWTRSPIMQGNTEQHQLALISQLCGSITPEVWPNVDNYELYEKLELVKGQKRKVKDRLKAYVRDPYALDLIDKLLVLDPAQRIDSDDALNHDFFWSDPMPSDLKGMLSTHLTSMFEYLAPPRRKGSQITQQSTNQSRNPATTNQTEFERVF
CDK9/Cyclin T1 complex, sequence (O60563 whole entry partner): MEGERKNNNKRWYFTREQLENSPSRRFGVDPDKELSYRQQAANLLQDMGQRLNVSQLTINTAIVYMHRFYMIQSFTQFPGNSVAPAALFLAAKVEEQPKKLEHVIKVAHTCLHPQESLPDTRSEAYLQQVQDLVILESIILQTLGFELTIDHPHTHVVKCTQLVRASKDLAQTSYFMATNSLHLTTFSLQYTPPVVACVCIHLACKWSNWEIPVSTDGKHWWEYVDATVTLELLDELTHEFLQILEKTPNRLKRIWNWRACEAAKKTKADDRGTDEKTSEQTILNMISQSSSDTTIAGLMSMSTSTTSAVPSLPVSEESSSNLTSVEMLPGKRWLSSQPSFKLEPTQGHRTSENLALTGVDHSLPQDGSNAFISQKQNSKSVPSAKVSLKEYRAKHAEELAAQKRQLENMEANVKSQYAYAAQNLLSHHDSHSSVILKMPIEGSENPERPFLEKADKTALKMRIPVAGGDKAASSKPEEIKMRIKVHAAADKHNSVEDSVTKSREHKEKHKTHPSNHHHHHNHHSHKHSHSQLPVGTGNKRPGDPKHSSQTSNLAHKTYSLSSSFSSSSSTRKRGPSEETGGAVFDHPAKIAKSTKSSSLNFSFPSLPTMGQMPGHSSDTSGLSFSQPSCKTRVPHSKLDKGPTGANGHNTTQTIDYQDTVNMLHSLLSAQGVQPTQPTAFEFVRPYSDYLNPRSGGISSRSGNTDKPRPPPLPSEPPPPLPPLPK
CDK7/Cyclin H/MAT1 complex, sequence (P50613 whole entry): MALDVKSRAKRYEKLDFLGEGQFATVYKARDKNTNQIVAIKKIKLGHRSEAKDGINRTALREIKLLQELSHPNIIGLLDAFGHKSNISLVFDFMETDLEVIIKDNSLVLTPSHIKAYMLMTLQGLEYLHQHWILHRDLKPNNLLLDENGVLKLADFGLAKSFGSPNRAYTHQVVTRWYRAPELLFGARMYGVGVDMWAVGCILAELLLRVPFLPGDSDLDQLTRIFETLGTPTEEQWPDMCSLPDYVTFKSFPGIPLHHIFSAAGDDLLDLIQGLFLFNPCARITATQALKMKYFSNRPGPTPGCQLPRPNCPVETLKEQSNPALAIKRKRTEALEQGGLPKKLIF
CDK7/Cyclin H/MAT1 complex, sequence (P51946 whole entry partner): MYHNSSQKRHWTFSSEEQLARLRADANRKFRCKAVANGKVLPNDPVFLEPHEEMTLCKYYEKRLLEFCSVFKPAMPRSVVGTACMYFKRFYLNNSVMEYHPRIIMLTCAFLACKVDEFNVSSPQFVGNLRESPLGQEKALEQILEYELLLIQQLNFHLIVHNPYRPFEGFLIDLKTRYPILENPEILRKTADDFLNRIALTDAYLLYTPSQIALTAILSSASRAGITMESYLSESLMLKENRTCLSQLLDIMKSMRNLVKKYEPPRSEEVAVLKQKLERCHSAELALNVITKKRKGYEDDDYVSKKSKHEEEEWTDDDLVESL
CDK7/Cyclin H/MAT1 complex, sequence (P51948 whole entry partner): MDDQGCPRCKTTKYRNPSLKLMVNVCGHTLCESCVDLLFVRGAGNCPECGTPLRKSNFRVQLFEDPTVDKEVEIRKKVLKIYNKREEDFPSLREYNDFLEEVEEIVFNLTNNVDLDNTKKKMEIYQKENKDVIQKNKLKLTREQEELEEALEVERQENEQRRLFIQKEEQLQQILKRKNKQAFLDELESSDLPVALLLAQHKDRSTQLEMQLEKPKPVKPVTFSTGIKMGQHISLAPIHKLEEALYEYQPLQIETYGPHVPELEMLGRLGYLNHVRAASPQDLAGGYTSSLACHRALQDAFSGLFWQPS
T1 sequence (Q9NYV4 686-1082): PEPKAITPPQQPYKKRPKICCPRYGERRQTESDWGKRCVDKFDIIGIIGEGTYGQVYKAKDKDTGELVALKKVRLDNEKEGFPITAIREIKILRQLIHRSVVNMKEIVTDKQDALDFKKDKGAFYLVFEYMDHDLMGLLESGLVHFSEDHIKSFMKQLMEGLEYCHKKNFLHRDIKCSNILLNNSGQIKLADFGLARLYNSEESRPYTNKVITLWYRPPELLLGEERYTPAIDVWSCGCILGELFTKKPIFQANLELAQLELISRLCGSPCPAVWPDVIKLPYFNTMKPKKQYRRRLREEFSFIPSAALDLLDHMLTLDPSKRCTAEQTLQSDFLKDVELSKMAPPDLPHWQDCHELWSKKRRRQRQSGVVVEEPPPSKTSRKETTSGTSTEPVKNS
T1 sequence (O75909 whole entry partner, the tested form may be a part): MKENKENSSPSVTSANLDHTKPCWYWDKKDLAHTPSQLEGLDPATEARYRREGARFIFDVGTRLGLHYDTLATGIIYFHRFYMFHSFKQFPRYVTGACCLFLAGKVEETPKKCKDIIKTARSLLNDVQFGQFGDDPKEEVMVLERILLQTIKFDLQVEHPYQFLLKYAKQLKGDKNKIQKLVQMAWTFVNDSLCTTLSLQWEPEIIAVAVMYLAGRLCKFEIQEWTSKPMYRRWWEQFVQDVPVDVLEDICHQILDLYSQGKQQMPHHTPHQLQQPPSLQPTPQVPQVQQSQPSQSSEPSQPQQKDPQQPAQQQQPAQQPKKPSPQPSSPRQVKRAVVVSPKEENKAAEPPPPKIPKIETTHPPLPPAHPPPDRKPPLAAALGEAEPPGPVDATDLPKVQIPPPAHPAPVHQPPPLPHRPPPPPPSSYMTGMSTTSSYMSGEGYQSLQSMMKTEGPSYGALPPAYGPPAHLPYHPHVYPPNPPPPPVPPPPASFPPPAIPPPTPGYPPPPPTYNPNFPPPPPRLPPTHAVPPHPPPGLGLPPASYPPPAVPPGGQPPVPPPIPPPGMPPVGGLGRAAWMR

Row | IC50 (CDK2/Cyclin E1 complex) [nM] | IC50 [1] [nM] | IC50 (CDK9/Cyclin T1 complex) [nM] | IC50 [2] [nM] | SMILES | IC50 (A673 cells) [nM]
1 | 200 to 5000 | < 20 | 200 to 5000 | 200 to 5000 | Clc1cnc(NC2CCCNC2)nc1-c1c[nH]c2ccccc12 (stereo not shown) [Compound 100] | < 20
2 | 200 to 5000 | 200 to 5000 | 200 to 5000 | 200 to 5000 | Clc1cnc(NC2CCCNC2)nc1-c1c[nH]c2ccccc12 (stereo not shown) [Compound 101] | 20 to 200
3 | 200 to 5000 | < 20 | 20 to 200 | 20 to 200 | FC(F)(F)c1cnc(NC2CCCNC2)nc1-c1c[nH]c2ccccc12 (stereo not shown) [Compound 102] | < 20
4 | ≥ 5000 | 20 to 200 | ≥ 5000 | 200 to 5000 | CCc1cnc(NC2CCCNC2)nc1-c1c[nH]c2ccccc12 (stereo not shown) [Compound 105] | 20 to 200
5 | ≥ 5000 | 20 to 200 | 200 to 5000 | 200 to 5000 | Cc1[nH]c2ccccc2c1-c1nc(NC2CCCNC2)ncc1Cl (stereo not shown) [Compound 106] | 20 to 200
6 | 200 to 5000 | 20 to 200 | 200 to 5000 | 200 to 5000 | Cc1ccc2[nH]cc(-c3nc(NC4CCCNC4)ncc3Cl)c2c1 (stereo not shown) [Compound 108] | 200 to 5000
7 | 200 to 5000 | 20 to 200 | 200 to 5000 | 200 to 5000 | CCc1cnc(NC2CCCNC2)nc1-c1n[nH]c2ccccc12 (stereo not shown) [Compound 110] | 20 to 200
8 | 200 to 5000 | < 20 | 20 to 200 | 20 to 200 | Fc1cc2[nH]cc(-c3nc(NC4CCCNC4)ncc3Cl)c2cc1F (stereo not shown) [Compound 111] | 20 to 200
9 | ≥ 5000 | 20 to 200 | ≥ 5000 | 200 to 5000 | OC1CCNCC1Nc1ncc(Cl)c(-c2c[nH]c3ccccc23)n1 (stereo not shown) [Compound 113] | 200 to 5000
10 | 200 to 5000 | 20 to 200 | 200 to 5000 | 200 to 5000 | CC1NCCCC1Nc1ncc(Cl)c(-c2c[nH]c3ccccc23)n1 (stereo not shown) [Compound 114] | 20 to 200
11 | ≥ 5000 | 200 to 5000 | ≥ 5000 | ≥ 5000 | CC1(Nc2ncc(Cl)c(-c3c[nH]c4ccccc34)n2)CCCNC1 (stereo not shown) [Compound 115] | 200 to 5000
12 | ≥ 5000 | ≥ 5000 | ≥ 5000 | ≥ 5000 | Clc1cnc(NC2CNCCC2c2ccccc2)nc1-c1c[nH]c2ccccc12 (stereo not shown) [Compound 116] | 200 to 5000
13 | 200 to 5000 | 20 to 200 | 200 to 5000 | 200 to 5000 | Clc1cnc(NC2CCCNC2)nc1-c1c[nH]c2ccncc12 (stereo not shown) [Compound 117] | 20 to 200
14 | ≥ 5000 | 20 to 200 | 200 to 5000 | 200 to 5000 | Cc1cnc(NC2CCCNC2)nc1-c1c[nH]c2ccccc12 (stereo not shown) [Compound 119] | 20 to 200
15 | ≥ 5000 | 200 to 5000 | ≥ 5000 | 200 to 5000 | CCc1cnc(NC2CCCNC2)nc1-c1n[nH]c2ccc(C)cc12 (stereo not shown) [Compound 120] | –
16 | 200 to 5000 | 20 to 200 | 200 to 5000 | 200 to 5000 | FC1CCNCC1Nc1ncc(Cl)c(-c2c[nH]c3ccccc23)n1 (stereo not shown) [Compound 121] | 20 to 200
17 | ≥ 5000 | 200 to 5000 | 200 to 5000 | ≥ 5000 | COCCn1cc(-c2nc(NC3CCCNC3)ncc2Cl)c2ccccc21 (stereo not shown) [Compound 122] | 200 to 5000
18 | ≥ 5000 | 20 to 200 | 200 to 5000 | ≥ 5000 | COCCn1cc(-c2nc(NC3CCCNC3)ncc2C(F)(F)F)c2ccccc21 (stereo not shown) [Compound 123] | 200 to 5000
19 | 200 to 5000 | < 20 | 200 to 5000 | 20 to 200 | Cc1cccc2c(-c3nc(NC4CCCNC4)ncc3C(F)(F)F)c[nH]c12 (stereo not shown) [Compound 124] | < 20

Row | IC50 (CDK2/Cyclin E1 complex) [nM] | IC50 [1] [nM] | IC50 (CDK9/Cyclin T1 complex) [nM] | IC50 [2] [nM] | SMILES | IC50 (A673 cells) [nM]
20 | ≥ 5000 | 20 to 200 | ≥ 5000 | ≥ 5000 | CC1CCNCC1Nc1ncc(Cl)c(-c2c[nH]c3ccccc23)n1 (stereo not shown) [Compound 125] | 200 to 5000
21 | 200 to 5000 | 20 to 200 | 200 to 5000 | 200 to 5000 | CC1CCNCC1Nc1ncc(Cl)c(-c2c[nH]c3ccccc23)n1 (stereo not shown) [Compound 126] | –
22 | 200 to 5000 | 200 to 5000 | 200 to 5000 | ≥ 5000 | CC(C)n1cc(-c2nc(NC3CCCNC3)ncc2Cl)c2ccccc21 (stereo not shown) [Compound 127] | 200 to 5000
23 | ≥ 5000 | ≥ 5000 | ≥ 5000 | ≥ 5000 | CCC1(Nc2ncc(Cl)c(-c3c[nH]c4ccccc34)n2)CCCNC1 (stereo not shown) [Compound 128] | –
24 | – | 20 to 200 | – | 200 to 5000 | CC1CCC(Nc2ncc(Cl)c(-c3c[nH]c4ccccc34)n2)CN1 (stereo not shown) [Compound 129] | 20 to 200
25 | – | ≥ 5000 | – | ≥ 5000 | Clc1cnc(NC2(c3ccccc3)CCCNC2)nc1-c1c[nH]c2ccccc12 (stereo not shown) [Compound 130] | 200 to 5000
26 | – | 20 to 200 | 200 to 5000 | 200 to 5000 | FC(F)(F)c1cnc(NC2CCCNC2)nc1-c1c[nH]c2c(-c3ccncc3)cccc12 (stereo not shown) [Compound 162] | < 20
27 | – | 20 to 200 | 200 to 5000 | 200 to 5000 | FC(F)(F)c1cnc(NC2CCCNC2)nc1-c1c[nH]c2c(Br)cccc12 (stereo not shown) [Compound 163] | 20 to 200
28 | – | 20 to 200 | 200 to 5000 | 200 to 5000 | Cn1cc(-c2cccc3c(-c4nc(NC5CCCNC5)ncc4C(F)(F)F)c[nH]c23)cn1 (stereo not shown) [Compound 164] | < 20
29 | 200 to 5000 | 20 to 200 | 200 to 5000 | 200 to 5000 | CC1(O)CCC(c2cccc3c(-c4nc(NC5CCCNC5)ncc4C(F)(F)F)c[nH]c23)CC1 (stereo not shown) [Compound 193] | –
30 | ≥ 5000 | < 20 | ≥ 5000 | 200 to 5000 | CC1(O)CCN(C(=O)c2ccc3c(-c4nc(NC5CCCNC5)ncc4C(F)(F)F)c[nH]c3c2)C1 (stereo not shown) [Compound 220] | –
31 | 200 to 5000 | 20 to 200 | ≥ 5000 | 200 to 5000 | CC(C)C1CCC(Nc2nccc(-c3c[nH]c4ccccc34)n2)CN1 (stereo not shown) [Compound 237] | –
32 | 200 to 5000 | < 20 | 200 to 5000 | 200 to 5000 | FC(F)(F)c1cnc(N[C@H]2CCCNC2)nc1-c1c[nH]c2cc(-n3ccnc3)ccc12 [Compound 248] | –
33 | – | – | – | – | FC(F)(F)c1cnc(NC2CNCC(c3nnc4ccccn34)C2)nc1-c1c[nH]c2ccccc12 (stereo not shown) [Compound 268] | 200 to 5000
34 | – | – | – | – | CCc1cnc(N[C@H]2CCCNC2)nc1-c1c[nH]c2cc(S(C)(=O)=O)ccc12 [Compound 271] | 200 to 5000
35 | – | – | – | – | CSc1cnc(NC2CCCNC2)nc1-c1c[nH]c2cc(C#N)ccc12 (stereo not shown) [Compound 272] | 20 to 200
36 | ≥ 5000 | 20 to 200 | ≥ 5000 | ≥ 5000 | CCc1cnc(N[C@H]2CCCNC2)nc1-c1c[nH]c2c(S(=O)(=O)O)cccc12 [Compound 362] | –
37 | ≥ 5000 | 20 to 200 | ≥ 5000 | ≥ 5000 | CCc1cnc(NC2CCCNC2)nc1-c1c[nH]c2c(S(=O)O)cccc12 (stereo not shown) [Compound 363] | –
